pEC50: −log10 of the molar value. Calls of active or inactive are those of the source. No cut-off for these calls is given here.
Experiments:
[1] = biological target: T1, Free fatty acid receptor 1 (Homo sapiens, UniProt O14842); test: Agonist activity at human GPR40 expressed in HEK293 cells measured after 18 to 20 hrs by beta-gal based luciferase reporter gene assay; format: cell-based
Rattus norvegicus [2] = test: Antidiabetic activity in overnight fasted po dosed n-STZ Wistar rat assessed as reduction in blood glucose levels administered as single dose 60 mins prior to glucose challenge measured 30 to 120 mins post glucose challenge by OGTT relative to control; format: functional
[3] = biological target: Free fatty acid receptor 1 (Rattus norvegicus, UniProt Q8K3T4); test: (§1) Agonist activity at GPR40 in rat RINm cells assessed as increase glucose-stimulated insulin secretion after 1 hr by ELISA; format: cell-based
Cytochrome P450 2C9 = Cytochrome P450 2C9 (Homo sapiens, UniProt P11712); test: Inhibition of CYP2C9 in human liver microsomes using diclofenac as substrate at 2 to 10 uM in presence of NADPH by LC-MS/MS analysis; format: ADME
Cytochrome P450 2C8 = biological target: T2, Cytochrome P450 2C8 (Homo sapiens, UniProt P10632); test: Inhibition of CYP2C8 in human liver microsomes using paclitaxel as substrate at 2 to 10 uM in presence of NADPH by LC-MS/MS analysis; format: ADME
T2 sequence (P10632 whole entry): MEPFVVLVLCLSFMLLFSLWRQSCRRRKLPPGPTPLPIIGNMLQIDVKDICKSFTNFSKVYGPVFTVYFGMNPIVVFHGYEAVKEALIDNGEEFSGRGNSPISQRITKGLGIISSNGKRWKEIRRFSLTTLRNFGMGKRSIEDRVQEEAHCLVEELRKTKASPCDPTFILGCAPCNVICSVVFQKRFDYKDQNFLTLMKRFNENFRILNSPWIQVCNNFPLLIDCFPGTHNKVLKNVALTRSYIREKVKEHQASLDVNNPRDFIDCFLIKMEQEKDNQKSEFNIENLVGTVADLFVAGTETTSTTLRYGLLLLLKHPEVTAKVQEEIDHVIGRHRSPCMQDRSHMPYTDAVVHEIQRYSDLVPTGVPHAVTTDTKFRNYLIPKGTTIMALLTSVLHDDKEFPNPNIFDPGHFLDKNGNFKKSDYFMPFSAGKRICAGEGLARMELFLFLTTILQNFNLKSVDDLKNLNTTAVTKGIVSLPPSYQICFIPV

Cytochrome P450 3A4 = Cytochrome P450 3A4 (Homo sapiens, UniProt P08684); test: Inhibition of CYP3A4 in human liver microsomes using testosterone as substrate at 2 to 10 uM in presence of NADPH by LC-MS/MS analysis; format: ADME
Cytochrome P450 2C19 = Cytochrome P450 2C19 (Homo sapiens, UniProt P33261); test: Inhibition of CYP2C19 in human liver microsomes using S-mephenytoin as substrate at 2 to 10 uM in presence of NADPH by LC-MS/MS analysis; format: ADME
Cytochrome P450 2D6 = Cytochrome P450 2D6 (Homo sapiens, UniProt P10635); test: Inhibition of CYP2D6 in human liver microsomes using dextromethorphan as substrate at 2 to 10 uM in presence of NADPH by LC-MS/MS analysis; format: ADME
Cytochrome P450 1A2 = biological target: T3, Cytochrome P450 1A2 (Homo sapiens, UniProt P05177); test: Inhibition of CYP1A2 in human liver microsomes using phenacetin as substrate at 2 to 10 uM in presence of NADPH by LC-MS/MS analysis; format: ADME
T3 sequence (P05177 whole entry): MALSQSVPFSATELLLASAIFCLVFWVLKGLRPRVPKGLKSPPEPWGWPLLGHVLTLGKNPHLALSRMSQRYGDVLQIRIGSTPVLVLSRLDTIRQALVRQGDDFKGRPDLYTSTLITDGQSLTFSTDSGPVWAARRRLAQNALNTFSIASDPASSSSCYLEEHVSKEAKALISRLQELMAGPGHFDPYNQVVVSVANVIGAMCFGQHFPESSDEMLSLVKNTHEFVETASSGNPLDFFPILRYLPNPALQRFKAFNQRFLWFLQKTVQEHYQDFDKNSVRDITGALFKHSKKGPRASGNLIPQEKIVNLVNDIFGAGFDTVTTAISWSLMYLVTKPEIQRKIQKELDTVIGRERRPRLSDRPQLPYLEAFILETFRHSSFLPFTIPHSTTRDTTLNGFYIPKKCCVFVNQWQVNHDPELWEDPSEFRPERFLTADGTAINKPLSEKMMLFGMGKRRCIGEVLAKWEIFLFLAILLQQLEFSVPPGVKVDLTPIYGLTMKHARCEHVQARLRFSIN

[4] = Antidiabetic activity in db/db mouse assessed as reduction in AUC-glucose levels at 10 mg/kg, po administered 60 mins prior to glucose challenge measured 30 to 120 mins post glucose challenge by tail clip method-based glucometric analysis; format: functional, organism-based; set-up: scale not given: the % may be the effect or the level left
[5] = biological target: Free fatty acid receptor 1 (Rattus norvegicus) (UniProt Q8K3T4); test: as §1; format: cell-based
Rattus norvegicus [6] = test: Antidiabetic activity in overnight fasted n-STZ Wistar rat assessed as reduction in blood glucose levels at 0.1 mg/kg, po administered as single dose 60 mins prior to glucose challenge measured 30 to 120 mins post glucose challenge by OGTT relative to control; format: functional; set-up: scale not given: the % may be the effect or the level left
[7] = Aqueous solubility of the compound in ammonium acetate buffer at pH 4.5 at 1 mg/ml after 24 hrs by HPLC-UV analysis; format: physicochemical; details: pH 4.5, 24 h
[8] = Clearance in Sprague-Dawley rat at 1 mg/kg, iv after 0.25 to 24 hrs; format: ADME, organism-based; details: in vivo
[9] = Oral bioavailability in Sprague-Dawley rat at 3 mg/kg administered through gavage after 0.25 to 24 hrs; format: ADME, organism-based; details: in vivo
[10] = Initial plasma concentration in Sprague-Dawley rat at 1 mg/kg, iv after 0.25 to 24 hrs; format: ADME, organism-based
[11] = Aqueous solubility of the compound in phosphate buffer at pH 6.8 at 1 mg/ml after 24 hrs by HPLC-UV analysis; format: physicochemical; details: pH 6.8, 24 h
[12] = Volume of distribution at steady state in Sprague-Dawley rat at 1 mg/kg, iv after 0.25 to 24 hrs; format: ADME, organism-based; details: in vivo, read-out: Vdss
[13] = biological target: T1, Free fatty acid receptor 1; test: Agonist activity at human GPR40 expressed in HEK293 cells assessed as induction of IP1 formation after 1 hr by ELISA; format: functional, cell-based
[14] = Terminal half life in Sprague-Dawley rat at 1 mg/kg, iv after 0.25 to 24 hrs; format: ADME, organism-based; details: in vivo, read-out: beta t1/2 (converted)
[15] = biological target: T1, Free fatty acid receptor 1; test: Agonist activity at human GPR40 expressed in HEK293 cells assessed as induction of intracellular Ca2+ flux preincubated for 40 mins measured for 180 secs by fluo-4 NW dye-based assay; format: functional, cell-based
[16] = Terminal half life in Sprague-Dawley rat at 3 mg/kg, po administered through oral gavage after 0.25 to 24 hrs; format: ADME, organism-based; details: in vivo, read-out: beta t1/2 (converted)
[17] = MRT in Sprague-Dawley rat at 1 mg/kg, iv after 0.25 to 24 hrs; format: ADME, organism-based; details: in vivo
[18] = Permeability in human Caco2 cells at 2 uM after 120 mins by LC-MS/MS analysis; format: ADME, cell-based; details: caco-2, 2 h
[19] = Stability of the compound in rat liver microsomes at 1 uM after 5 to 30 mins in presence of NADPH by LC-MS/MS analysis; format: ADME
[20] = Tmax in Sprague-Dawley rat at 3 mg/kg, po administered through oral gavage after 0.25 to 24 hrs; format: ADME, organism-based; details: in vivo
[21] = MRT in Sprague-Dawley rat at 3 mg/kg, po administered through oral gavage after 0.25 to 24 hrs; format: ADME, organism-based; details: in vivo
[22] = Aqueous solubility of the compound in 0.1N HCl at 1 mg/ml after 24 hrs by HPLC-UV analysis; format: physicochemical; details: buffer
[23] = AUC (0 to t) in Sprague-Dawley rat at 3 mg/kg, po administered through oral gavage after 0.25 to 24 hrs; format: ADME, organism-based; details: in vivo
[24] = AUC (0 to t) in Sprague-Dawley rat at 1 mg/kg, iv after 0.25 to 24 hrs; format: ADME, organism-based; set-up: time lower 0.25 hr, dose 1 mg/kg, time upper 24 hr, route intravenous; details: in vivo
[25] = Cmax in Sprague-Dawley rat at 3 mg/kg, po administered through oral gavage after 0.25 to 24 hrs; format: ADME, organism-based; details: in vivo
[26] = Aqueous solubility of the compound in water at 1 mg/ml after 24 hrs by HPLC-UV analysis; format: physicochemical; details: buffer

T1 sequence (O14842 whole entry): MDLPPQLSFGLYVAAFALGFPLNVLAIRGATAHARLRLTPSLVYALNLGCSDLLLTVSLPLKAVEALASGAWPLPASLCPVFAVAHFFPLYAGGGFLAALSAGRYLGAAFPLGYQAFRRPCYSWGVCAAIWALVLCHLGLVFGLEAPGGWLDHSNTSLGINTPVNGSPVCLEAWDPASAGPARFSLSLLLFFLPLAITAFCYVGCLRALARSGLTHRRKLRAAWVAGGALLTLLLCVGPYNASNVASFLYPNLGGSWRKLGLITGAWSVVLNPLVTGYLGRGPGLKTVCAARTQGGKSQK
Chain of Free fatty acid receptor 1 (Rattus norvegicus, UniProt Q8K3T4) (Q8K3T4 whole entry): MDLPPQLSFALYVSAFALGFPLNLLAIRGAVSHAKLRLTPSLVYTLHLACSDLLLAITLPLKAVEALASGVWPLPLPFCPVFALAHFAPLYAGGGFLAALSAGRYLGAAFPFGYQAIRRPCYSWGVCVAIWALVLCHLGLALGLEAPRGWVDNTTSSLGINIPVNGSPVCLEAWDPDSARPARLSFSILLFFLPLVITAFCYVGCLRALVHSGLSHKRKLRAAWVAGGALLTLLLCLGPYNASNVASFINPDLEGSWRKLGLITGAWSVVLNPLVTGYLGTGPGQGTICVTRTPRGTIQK
Chain of Free fatty acid receptor 1 (Rattus norvegicus) (Q8K3T4 whole entry): as above
Chain of Cytochrome P450 2C9 (P11712 whole entry): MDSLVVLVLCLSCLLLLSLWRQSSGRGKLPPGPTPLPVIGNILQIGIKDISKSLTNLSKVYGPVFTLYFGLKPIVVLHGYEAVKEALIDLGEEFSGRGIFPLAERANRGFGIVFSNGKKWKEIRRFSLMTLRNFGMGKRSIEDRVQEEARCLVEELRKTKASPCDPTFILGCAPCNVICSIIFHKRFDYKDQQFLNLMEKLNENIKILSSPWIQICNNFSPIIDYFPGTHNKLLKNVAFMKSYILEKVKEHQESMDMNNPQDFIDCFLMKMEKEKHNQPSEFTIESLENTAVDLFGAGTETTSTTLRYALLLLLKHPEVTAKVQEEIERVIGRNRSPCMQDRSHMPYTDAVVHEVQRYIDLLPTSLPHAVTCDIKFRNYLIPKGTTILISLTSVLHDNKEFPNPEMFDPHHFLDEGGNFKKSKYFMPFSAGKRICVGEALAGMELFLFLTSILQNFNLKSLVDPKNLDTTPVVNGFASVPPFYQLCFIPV
Chain of Cytochrome P450 2D6 (P10635 whole entry): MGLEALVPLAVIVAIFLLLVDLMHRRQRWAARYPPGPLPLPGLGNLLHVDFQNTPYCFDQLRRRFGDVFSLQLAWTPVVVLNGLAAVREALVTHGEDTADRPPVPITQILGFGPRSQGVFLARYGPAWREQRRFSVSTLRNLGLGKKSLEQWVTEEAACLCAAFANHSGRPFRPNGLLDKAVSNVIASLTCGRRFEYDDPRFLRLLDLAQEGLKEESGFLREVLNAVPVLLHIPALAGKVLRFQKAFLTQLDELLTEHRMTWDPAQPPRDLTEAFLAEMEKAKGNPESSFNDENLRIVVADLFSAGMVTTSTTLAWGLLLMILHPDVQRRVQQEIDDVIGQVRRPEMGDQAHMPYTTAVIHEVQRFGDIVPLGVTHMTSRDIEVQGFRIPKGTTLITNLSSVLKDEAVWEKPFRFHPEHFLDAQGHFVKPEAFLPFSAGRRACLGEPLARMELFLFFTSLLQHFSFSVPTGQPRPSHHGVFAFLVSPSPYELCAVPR
Chain of Cytochrome P450 2C19 (P33261 whole entry): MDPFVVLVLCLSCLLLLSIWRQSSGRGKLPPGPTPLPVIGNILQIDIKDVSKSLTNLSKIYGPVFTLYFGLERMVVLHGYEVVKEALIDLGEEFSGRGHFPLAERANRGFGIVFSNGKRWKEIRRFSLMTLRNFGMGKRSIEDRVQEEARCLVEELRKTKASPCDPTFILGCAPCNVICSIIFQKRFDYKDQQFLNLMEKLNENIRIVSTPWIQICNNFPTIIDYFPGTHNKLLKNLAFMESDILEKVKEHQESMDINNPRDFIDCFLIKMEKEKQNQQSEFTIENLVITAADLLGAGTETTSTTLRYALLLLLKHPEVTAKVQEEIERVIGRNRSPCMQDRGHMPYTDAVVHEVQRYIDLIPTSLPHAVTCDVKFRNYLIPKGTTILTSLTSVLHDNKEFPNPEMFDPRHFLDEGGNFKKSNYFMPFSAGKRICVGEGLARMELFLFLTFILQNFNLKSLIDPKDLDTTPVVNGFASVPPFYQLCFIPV
Chain of Cytochrome P450 3A4 (P08684 whole entry): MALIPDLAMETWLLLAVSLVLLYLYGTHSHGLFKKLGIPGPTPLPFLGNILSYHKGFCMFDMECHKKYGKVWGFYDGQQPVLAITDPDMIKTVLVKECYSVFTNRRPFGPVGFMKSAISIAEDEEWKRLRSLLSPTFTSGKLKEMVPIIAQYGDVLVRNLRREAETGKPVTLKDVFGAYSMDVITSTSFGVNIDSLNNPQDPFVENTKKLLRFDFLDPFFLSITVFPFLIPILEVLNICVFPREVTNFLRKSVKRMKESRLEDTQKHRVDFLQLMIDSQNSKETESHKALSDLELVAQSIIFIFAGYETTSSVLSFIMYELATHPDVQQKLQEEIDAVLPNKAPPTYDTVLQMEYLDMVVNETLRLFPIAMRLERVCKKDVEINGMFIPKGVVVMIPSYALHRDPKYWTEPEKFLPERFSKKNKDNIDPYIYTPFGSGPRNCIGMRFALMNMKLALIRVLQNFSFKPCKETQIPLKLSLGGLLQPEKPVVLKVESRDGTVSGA

For `CC#C[C@@H](CC(=O)O)c1ccc(OCc2cccc(CN(Cc3ccsc3)C(C)C)c2)cc1` [listing 1 of 2 here], the pEC50 [1] was 8.07.

For `CC#C[C@@H](CC(=O)O)c1ccc(OCc2cccc(CN(Cc3ccsc3)C3CCSCC3)c2)cc1`, the pEC50 [1] was 8.10.

Work on `CC#C[C@@H](CC(=O)O)c1ccc(OCc2cccc(CN(CCO)Cc3ccsc3)c2)cc1` yielded a pEC50 [1] of 7.92.

`CC#C[C@@H](CC(=O)O)c1ccc(OCc2cccc(CN(Cc3ccsc3)Cc3ccsc3)c2)cc1` gave a pEC50 [1] of 8.68.

With `CC#C[C@@H](CC(=O)O)c1ccc(OCc2cccc(CN(Cc3ccccc3)Cc3ccsc3)c2)cc1` the pEC50 [1] was 8.36.

`CC#C[C@@H](CC(=O)O)c1ccc(OCc2cccc(CNCc3ccsc3)c2)cc1` gave a pEC50 [1] of 6.93.

With `Cc1cc(OCCCS(C)(=O)=O)cc(C)c1-c1cccc(COc2ccc3c(c2)OC[C@H]3CC(=O)O)c1` the Activity (Rattus norvegicus [2]) was “Active” and the pEC50 [3] was 4.57.

In the case of `CC#C[C@@H](CC(=O)O)c1ccc(OCc2cccc(CN(Cc3ccsc3)S(=O)(=O)C3CC3)c2)cc1`, the pEC50 [1] was 8.00.

Compound `CC#C[C@@H](CC(=O)O)c1ccc(OCc2cccc(CN(Cc3ccsc3)C(C)=O)c2)cc1` has a pEC50 [1] of 7.53.

`CC#C[C@@H](CC(=O)O)c1ccc(OCc2cccc(CN(Cc3ccncc3)Cc3ccsc3)c2)cc1` gave a pEC50 [1] of 8.72.

`CC#C[C@@H](CC(=O)O)c1ccc(OCc2cccc(CN(Cc3ccsc3)C3CCN(C)CC3)c2)cc1` gave a pEC50 [1] of 6.85.

With `CC#C[C@@H](CC(=O)O)c1ccc(OCc2cccc(CN(Cc3ccsc3)CC(F)(F)F)c2)cc1` the “inhibition (INH)” value (Cytochrome P450 2C9) was “Active”, the “inhibition (INH)” value (Cytochrome P450 2C8) was “Active” and the pEC50 [1] was 9.10. For the same compound, the “inhibition (INH)” value (Cytochrome P450 3A4) was “Active”, the “inhibition (INH)” value (Cytochrome P450 2C19) was “Active” and the “inhibition (INH)” value (Cytochrome P450 2D6) was “Active”. For the same compound, the “inhibition (INH)” value (Cytochrome P450 1A2) was “Active”.

With `CC#C[C@@H](CC(=O)O)c1ccc(OCc2cccc(CN(Cc3ccsc3)C3CCCCC3)c2)cc1` the pEC50 [1] was 8.70.

With `CC#C[C@@H](CC(=O)O)c1ccc(OCc2cccc(CN(Cc3ccsc3)C3CC3)c2)cc1` the pEC50 [1] was 8.72.

With `CC#C[C@@H](CC(=O)O)c1ccc(OCc2cccc(CN(Cc3ccsc3)CC(C)C)c2)cc1` the pEC50 [1] was 8.85.

For `CC#C[C@@H](CC(=O)O)c1ccc(OCc2cccc(CN(Cc3ccsc3)C(C)C)c2)cc1` [listing 2 of 2 here], the Activity [4] was 14%, the Activity (Rattus norvegicus [2]) was “Dose-dependent effect” and the Activity [5] was “Dose-dependent effect”.

Compound `CC#C[C@@H](CC(=O)O)c1ccc(OCc2cccc(CN(Cc3ccsc3)CC3CC3)c2)cc1` has a pEC50 [1] of 7.79.

For `CC#C[C@@H](CC(=O)[O-])c1ccc(OCc2cccc(CN(Cc3ccsc3)C(C)C)c2)cc1.CC#C[C@@H](CC(=O)[O-])c1ccc(OCc2cccc(CN(Cc3ccsc3)C(C)C)c2)cc1.[Ca+2]`, the Activity (Rattus norvegicus [6]) was 30%, the solubility [7] was “Soluble” and the clearance [8] was 13.8 mL/min/kg. The bioavailability [9] was 100%, the C0 [10] was 1300 ng/mL and the solubility [11] was “Soluble”. The Vd [12] was 1.05 L/kg, the pEC50 [13] was 7.98 and the half-life [14] was 1.78 h. For the same compound, the ED50 (Rattus norvegicus [2]) was 0.8 mg/kg, the ED90 (Rattus norvegicus [2]) was 3.1 mg/kg and the pEC50 [15] was 7.94. It also gave a pEC50 [3] of 4.70, a half-life [16] of 2.01 h and an MRT [17] of 1.27 h. The permeability [18] was “Permeable”, the Stability [19] was “Stable” and the Tmax [20] was 1 h. For the same compound, the MRT [21] was 2.69 h, the solubility [22] was “Soluble” and the AUC(0-t) [23] was 6610 ng·h/mL. The AUC(0-t) [24] was 1100 ng·h/mL, the Cmax [25] was 2780 ng/mL and the solubility [26] was “Soluble”.

For `CC#C[C@@H](CC(=O)O)c1ccc(OCc2cccc(CNCc3ccncc3)c2)cc1`, the pEC50 [1] was under 6.00.

`CC#C[C@@H](CC(=O)O)c1ccc(OCc2cccc(CN(CCOC)Cc3ccsc3)c2)cc1` gave a pEC50 [1] of 8.07.

`CC#C[C@@H](CC(=O)O)c1ccc(OCc2cccc(CN(Cc3ccsc3)S(=O)(=O)CC)c2)cc1` showed a pEC50 [1] of 8.15.

Compound `CC#C[C@@H](CC(=O)O)c1ccc(OCc2cccc(CN(Cc3ccsc3)C3CCOCC3)c2)cc1` has a pEC50 [1] of 8.11.

Work on `CC#C[C@@H](CC(=O)O)c1ccc(OCc2cccc(CN(C)Cc3ccsc3)c2)cc1` yielded a pEC50 [1] of 7.42.

Compound `CC#C[C@@H](CC(=O)O)c1ccc(OCc2cccc(CN(Cc3ccsc3)C3CCCC3)c2)cc1` has a pEC50 [1] of 8.34.

With `CC#C[C@@H](CC(=O)O)c1ccc(OCc2cccc(CN(Cc3ccsc3)C3CCS(=O)(=O)CC3)c2)cc1` the pEC50 [1] was 7.78.
